Assay results published in US5206382A, “Indole derivatives, pharmaceutical compositions and methods of treating neurological and psychiatric disorders” (Fidia Georgetown Institute for the Neurosciences, priority 1991, dated 1993).

Columns and labels:
[1] = target: T1, ^3 H-ZOLPIDEM binding (crude synaptic membrane) (Rattus norvegicus, UniProt P18508+P62813); test: ^3 H-ZOLPIDEM binding, crude synaptic membranes; set-up: species or system Sprague Dawley rat; details: 2 nM ^3 H-ZOLPIDEM, rat cerebellum membranes
T1 construct: from tissue; host or cells: crude synaptic membranes of Sprague Dawley rat cerebellum
T1 sequence (P62813 28-455): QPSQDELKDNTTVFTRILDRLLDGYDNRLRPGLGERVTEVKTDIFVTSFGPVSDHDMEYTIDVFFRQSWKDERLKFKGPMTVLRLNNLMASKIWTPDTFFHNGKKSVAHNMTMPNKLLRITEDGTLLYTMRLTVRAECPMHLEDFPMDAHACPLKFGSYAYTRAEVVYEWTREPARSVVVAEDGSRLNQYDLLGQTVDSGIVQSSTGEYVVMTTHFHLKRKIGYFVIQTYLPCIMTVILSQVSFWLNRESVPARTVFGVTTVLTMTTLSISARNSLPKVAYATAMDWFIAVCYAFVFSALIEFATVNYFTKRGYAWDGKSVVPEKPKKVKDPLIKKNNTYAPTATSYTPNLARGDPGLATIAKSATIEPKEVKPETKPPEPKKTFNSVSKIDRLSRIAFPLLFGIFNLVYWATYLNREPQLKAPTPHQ
T1 sequence (P18508 39-466): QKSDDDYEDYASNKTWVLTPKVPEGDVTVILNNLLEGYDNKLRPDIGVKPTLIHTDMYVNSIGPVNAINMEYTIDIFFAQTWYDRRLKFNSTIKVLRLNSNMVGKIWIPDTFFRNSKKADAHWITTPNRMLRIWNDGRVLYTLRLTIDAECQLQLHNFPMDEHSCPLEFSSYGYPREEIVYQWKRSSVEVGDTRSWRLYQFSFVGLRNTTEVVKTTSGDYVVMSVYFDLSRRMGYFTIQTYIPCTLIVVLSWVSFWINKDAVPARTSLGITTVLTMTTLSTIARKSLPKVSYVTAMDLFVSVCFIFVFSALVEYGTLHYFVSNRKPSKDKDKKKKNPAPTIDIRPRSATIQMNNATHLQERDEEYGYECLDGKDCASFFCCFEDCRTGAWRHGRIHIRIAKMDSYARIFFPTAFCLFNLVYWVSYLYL
Experimental: (§1) Crude Synaptic Membrane Preparation: Sprague Dawley rats (200-250 gr.) were killed by decapitation. The cerebella were removed and incubated for 20 minutes in ice cold double distilled water after homogenization with Polytron. The homogenate was centrifuged at 18,000 xg at 4° C. for 10 minutes. The pellet was suspended in ice-cold buffer 50 mM Na/KPO4(pH 7.4) and centrifuged at 18,000 xg at 4° C. for 10 minutes. After two other centrifugations, the membranes were suspended in 5 ml of buffer and the proteins were measured.
(§2) The membranes were diluted with 50 mM Na/KPO4 buffer (pH 7.4) to a concentration of 150 μg of protein/ml, and 150 μl aliquots of the suspension were incubated with 50 μl of the different ligands to be tested: ^3 H-ZOLPIDEM(2 nM), ^3 H-FLUMAZENIL (2 nM), ^3 H-GABA(10 nM), ^3 H-MK 801(5 nM), ^3 H-KETANSERIN(1 nM), ^3 H-GLYCINE(20 nM), ^3 H-SPIPERONE(1 nM), ^3 H-AMPA(10 nM), ^3 H-3-PPP(1 nM), and ^3 H-NALOXONE(1 nM). Non-specific binding was assessed by displacing with 10 to 1000/μM of cold ligand. The different indole derivatives were added in a volume of 50 μl in a concentration varying from 10^-9 to 10^-3 M. The results are reported in Table I hereinbelow.

[2] = target: T2, MBR (mitochondrial benzodiazepine recognition site) (Rattus norvegicus, UniProt P16257); test: Displacement of ^3 H-PK11195 from mitochondrial BZD recognition site (MBR); format: binding, Sprague Dawley rat; details: for IC50: displacement of 1 nM ^3 H-PK11195, rat mitochondria, range in parentheses; for ^3 H-PK11195 / ^3 H-RO5-4864: ratio of the two IC50 values
T2 construct: Brain and adrenal glands were removed and homogenized with Polytron; from tissue; host or cells: mitochondrial fraction of Sprague Dawley rat brain and adrenal glands
Experimental: (§3) Mitochondrial Preparation: Sprague Dawley rats (200-250 gr.) were killed by decapitation. Brain and adrenal glands were removed and homogenized with Polytron for 15 minutes in ice cold buffer (10 mM Na/KPO4, 0.32M sucrose, pH 7.4). The homogenate was centrifuged for 15 minutes at 6,500 xg at 4° C. The resulting supernatant was centrifuged for 15 minutes at […] at 4° C. The pellet was suspended in buffer (20 times) by gentle homogenization and centrifuged at 10,000 xg at 4° C. for 15 minutes. The washed mitochondrial pellet was stored at -70° C.
(§4) For the binding assay the mitochondrial fraction was diluted with 50 mM Na/KPO4 buffer (pH 7.4) to give a final protein concentration of […] in 100 μl buffer. This suspension was incubated with 1 nM of ^3 H PK-11195 or ^3 H RO 5-4864 (50 μl) with or without 10/μM unlabeled PK-11195 or RO 5-4864 to assess the extent of total and non-specific binding. Different amounts of indole derivatives were added to the incubation medium in a volume of 50 μl. After incubation for 60 minutes at 4° C., samples were filtered and the radioactivity was measured in a scintillation counter.

[3] = target: T2, MBR (mitochondrial benzodiazepine recognition site); test: Displacement of ^3 H-RO5-4864 from mitochondrial BZD recognition site (MBR); format: binding, Sprague Dawley rat; details: displacement of 1 nM ^3 H-RO5-4864, rat mitochondria; range in parentheses
Experimental: as §3, §4

[4] = target: T3, BZD binding site located on the GABAA receptor (Rattus norvegicus, UniProt P18508+P62813); test: ^3 H-FLUMAZENIL binding, crude synaptic membranes; set-up: species or system Sprague Dawley rat; details: 2 nM ^3 H-FLUMAZENIL, rat cerebellum membranes
T3 construct: The cerebella were removed and incubated for 20 minutes in ice cold double distilled water; from tissue; host or cells: crude synaptic membranes of Sprague Dawley rat cerebellum
T3 sequence (P62813 28-455): as the sequence (P62813 28-455) above
T3 sequence (P18508 39-466): as the sequence (P18508 39-466) above
Experimental: as §1
The membranes were diluted with 50 mM Na/KPO4 buffer (pH 7.4) to a concentration of 150 μg of protein/ml, and 150 μl aliquots of the suspension were incubated with 50 μl of the different ligands to be tested: ^3 H-ZOLPIDEM(2 nM), ^3 H-FLUMAZENIL (2 nM), ^3 H-GABA(10 nM), ^3 H-MK 801(5 nM), ^3 H-KETANSERIN(1 nM), ^3 H-GLYCINE(20 nM), ^3 H-SPIPERONE(1 nM), ^3 H-AMPA(10 nM), ^3 H-3-PPP(1 nM), and ^3 H-NALOXONE(1 nM). Non-specific binding was assessed by displacing with 10 to 1000/μM of cold ligand.

[5] = tested on: mitochondrial pregnenolone formation, C6-2B glioma cells; test: Pregnenolone formation in glial mitochondria (C6-2B glioma cells); format: biochemical; details: for Effective concentration, maximal / EC50: C6 glial cell mitochondria, 15 minutes at 37° C.; for EC50: read-out: Effective concentration, 50%; for Stimulation %: pregnenolone formation, increase over the control
Experimental: The mixture was preincubated for 5 minutes at 37° C. The incubation mixture was extracted with 5 ml chloroform/methanol (2:1, vol/vol), and the organic phase was evaporated to dryness. Pregnenolone was measured by a specific radioimmunoassay using an antibody obtained from Radioassay Systems Laboratories, Carson, Calif.

[6] = tested on: Sprague Dawley rats; test: Elevated X maze test; format: in vivo, Sprague Dawley rat; details: for Entries in open arms, test after 10 min injection / Entries in open arms, test after 20 min injection / Entries in open arms, test after 30 min injection: 20 mg/kg i.v., rats; for behavioral output of rats in the elevated X maze test: in words
Experimental: The elevated X maze is a behavioral test to detect anxiolytic drugs in rodents. […] The plus-maze consists of two open arms (43×8 cm) and two similarly sized enclosed arms with 9 cm high walls, arranged so that the arms of the same type are opposite each other. There is a central square of 8 cm. The apparatus is elevated to a height of 10 cm and each arm is divided into 3 squares.
Sprague Dawley rats weighing 200-250 gr. were housed in a room with a 12 hour light: 12 hour dark cycle and were allowed free access to food and water. After an i.v. injection of different indole derivatives, the rats were kept separated for 10, 20 or 30 minutes before testing. The testing period commenced when each animal was placed onto the central square of the maze. The number of entries in each arm was then recorded for 5 minutes. The maze was cleaned with water after each trial. The number of entries in the open arms provided a measure of anxiolytic activity of the drugs.

[7] = target: ^3 H-GABA binding (crude synaptic membrane); test: ^3 H-GABA binding, crude synaptic membranes; set-up: species or system Sprague Dawley rat; details: 10 nM ^3 H-GABA, rat cerebellum membranes
Experimental: as §1, §2

SMILES | IC50 [1] [µM] | IC50 [2] [µM] | ^3 H-PK11195 / ^3 H-RO5-4864 [2] | IC50 [3] [µM] | IC50 [4] [µM] | binding to MBR in words ([2]; Tables I and II compared) | Effective concentration, maximal [5] | EC50 [5] [µM] | intrinsic efficacy (pregnenolone formation) ([5]; in words) | Stimulation % [5] | Entries in open arms, test after 10 min injection [6] | behavioral output of rats in the elevated X maze test [6] | Entries in open arms, test after 20 min injection [6] | Entries in open arms, test after 30 min injection [6] | IC50 [7] [µM]
O=C(Cc1c(-c2ccccc2)[nH]c2ccccc12)N1CCCCC1 [Compound No. 3] | > 1 | 0.084 | 1.4 | 0.059 | – | – | – | – | – | – | – | – | – | – | –
CCCN(CCC)C(=O)Cc1c(-c2ccc(Cl)cc2)[nH]c2ccc(Cl)cc12 [Compound No. 6] | > 1 | 0.045 | 1.1 | 0.04 | > 1 | – | – | – | – | – | – | – | – | – | –
CN(C)C(=O)Cc1c(-c2ccccc2)[nH]c2ccccc12 [Compound No. 7] | > 1 | 0.6 | 1 | 0.6 | > 1 | relatively high affinity | 10^-7 M | 0.01 | low intrinsic efficacy | 131% | – | – | – | – | –
CCCN(CCC)C(=O)Cc1c(-c2ccc(C)cc2)[nH]c2ccc(C)cc12 [Compound No. 8] | > 1 | 0.0685 | 1.6 | 0.0415 | – | – | 10^-7 M | 0.033 | – | 220% | – | – | – | – | –
Cc1ccc(-c2[nH]c3ccc(C)cc3c2CC(=O)N(C)C)cc1 [Compound No. 9] | > 1 | > 1 | > 3 | 0.255 | – | – | > 10^-6 M | – | – | none | – | – | – | – | –
CCCN(CCC)C(=O)Cc1c(-c2cccs2)[nH]c2ccccc12 [Compound No. 10] | > 1 | 0.024 | 1.6 | 0.0145 | > 1 | – | – | – | – | – | – | – | – | – | –
c1ccc(-c2[nH]c3ccccc3c2CC2=NCCN2)cc1 [Compound No. 15] | – | > 1 | – | > 1 | > 1 | – | – | – | – | – | – | – | – | – | –
CCCN(CCC)C(=O)Cc1c2n(c3ccccc13)Cc1ccccc1-2 [Compound No. 16] | – | 0.03 | 0.75 | 0.04 | > 1 | – | – | – | – | – | – | – | – | – | –
CCCN(CCC)C(=O)CCc1c(-c2ccc(Cl)cc2)[nH]c2ccc(Cl)cc12 [compound 11] | > 1 | 0.18 | 1.5 | 0.12 | > 1 | – | – | – | – | – | – | – | – | – | –
CCCN(CCC)C(=O)Cc1c(-c2cccs2)[nH]c2ccc(Cl)cc12 [compound 17] | – | 0.05 | 1.3 | 0.0375 | > 1 | – | – | – | – | – | – | – | – | – | –
CCCN(CCC)C(=O)Cc1c(-c2ccc(Br)cc2)[nH]c2ccccc12 [compound 18] | – | 0.075 | 2 | 0.036 | > 1 | – | – | – | – | – | 2 | increase the behavioral output | – | – | –
CCCN(CCC)C(=O)C(C)c1c(-c2ccc(Cl)cc2)[nH]c2ccccc12 (centres unmarked) [compound 19] | – | > 1 | – | > 1 | > 1 | – | – | – | – | – | 1 | increase the behavioral output | – | – | –
CCCN(CCC)C(=O)Cc1c(-c2cccc(Cl)c2)[nH]c2ccccc12 [compound 21] | – | 0.1 | 1.2 | 0.08 | > 1 | – | – | – | – | – | 2 | increase the behavioral output | 4 | 0 | > 1
CCCN(CCC)C(=O)Cc1c(-c2ccc(Cl)cc2)n(C)c2ccccc12 [compound 22] | – | 0.2 | 1 | 0.2 | > 1 | – | 10^-8 M | – | – | 170% | 3 | increase the behavioral output | 2 | 6 | –
CCCN(CCC)C(=O)C=Cc1c(-c2ccc(Cl)cc2)[nH]c2ccccc12 [compound 24] | > 1 | 0.7 | 1.1 | 0.6 | > 1 | – | – | – | – | – | 3 | increase the behavioral output | 2 | 3 | –
